Test results from PubChem BioAssay AID1963976 (Molecular Pharmacology Branch, DTP, NCI, 2024).

Test system: 435261-313-R-J1-PDC tumor spheroid viability
Assay: Anticancer human tumor 435261-313-R-J1-PDC patient-derived colon adenocarcinoma cell line growth inhibition [PI3K]
Details: spheroids with HUVEC and MSC; for IC50: curve of first compound; for viability, T/C: stronger effect = lower value
In short: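 Targeted small molecules plus PI3K inhibitors, half-log dose series from Cmax (default top 10 microM), were applied to heterotypic spheroids of cancer cells with HUVEC and MSCs. Viability indicated growth inhibition.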

[1] = second compound 0.0316 µM, first compound 0.0316 µM
[2] = second compound 0.0316 µM, first compound 0.1 µM
[3] = second compound 0.1 µM, first compound 0.0316 µM
[4] = second compound 0.1 µM, first compound 0.1 µM
[5] = second compound 0.316 µM, first compound 0.0316 µM
[6] = second compound 0.316 µM, first compound 0.1 µM
[7] = second compound 1 µM, first compound 0.0316 µM
[8] = second compound 1 µM, first compound 0.1 µM
[9] = second compound 3.16 µM, first compound 0.0316 µM
[10] = second compound 3.16 µM, first compound 0.1 µM
[11] = second compound 10 µM, first compound 0.0316 µM
[12] = second compound 10 µM, first compound 0.1 µM
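Note: spheroids exposed to compounds for 7 days.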

In the case of `Cn1ncnc1[C@H]1c2n[nH]c(=O)c3cc(F)cc(c23)N[C@@H]1c1ccc(F)cc1` + CC(Nc1ncnc2nc[nH]c12)c1cc2cccc(Cl)c2c(=O)n1-c1ccccc1, the IC50 (second compound 0.0316 µM) is reported as greater than 100 nM, the IC50 (second compound 0.1 µM) is reported as greater than 100 nM and the IC50 (second compound 0.316 µM) is reported as 76.3 nM. The IC50 (second compound 1 µM) was greater than 100 nM, the IC50 (second compound 3.16 µM) was greater than 100 nM and the IC50 (second compound 10 µM) was 0.725 nM. It also gave a viability, T/C (second compound 0.0316 µM, first compound 0.000316 µM) of 116%, a viability, T/C (second compound 0.0316 µM, first compound 0.001 µM) of 80.9% and a viability, T/C (second compound 0.0316 µM, first compound 0.00316 µM) of 76.1%. It also gave a viability, T/C (second compound 0.0316 µM, first compound 0.01 µM) of 82.5%, a viability, T/C [1] of 59.2% and a viability, T/C [2] of 53.5%. The viability, T/C (second compound 0.1 µM, first compound 0.000316 µM) was 90.6%, the viability, T/C (second compound 0.1 µM, first compound 0.001 µM) was 124% and the viability, T/C (second compound 0.1 µM, first compound 0.00316 µM) was 104%. For the same compound, the viability, T/C (second compound 0.1 µM, first compound 0.01 µM) was 106%, the viability, T/C [3] was 85.2% and the viability, T/C [4] was 69.9%. For the same compound, the viability, T/C (second compound 0.316 µM, first compound 0.000316 µM) was 81%, the viability, T/C (second compound 0.316 µM, first compound 0.001 µM) was 54.3% and the viability, T/C (second compound 0.316 µM, first compound 0.00316 µM) was 71.4%. The viability, T/C (second compound 0.316 µM, first compound 0.01 µM) was 78.3%, the viability, T/C [5] was 62.1% and the viability, T/C [6] was 45.6%. The viability, T/C (second compound 1 µM, first compound 0.000316 µM) was 80.3%, the viability, T/C (second compound 1 µM, first compound 0.001 µM) was 59.1% and the viability, T/C (second compound 1 µM, first compound 0.00316 µM) was 80.9%. The viability, T/C (second compound 1 µM, first compound 0.01 µM) was 82.1%, the viability, T/C [7] was 56.6% and the viability, T/C [8] was 52.7%. The viability, T/C (second compound 3.16 µM, first compound 0.000316 µM) was 53.3%, the viability, T/C (second compound 3.16 µM, first compound 0.001 µM) was 57.3% and the viability, T/C (second compound 3.16 µM, first compound 0.00316 µM) was 75.8%. For the same compound, the viability, T/C (second compound 3.16 µM, first compound 0.01 µM) was 49.5%, the viability, T/C [9] was 71.1% and the viability, T/C [10] was 56.2%. It also gave a viability, T/C (second compound 10 µM, first compound 0.000316 µM) of 58%, a viability, T/C (second compound 10 µM, first compound 0.001 µM) of 50.8% and a viability, T/C (second compound 10 µM, first compound 0.00316 µM) of 34.9%. The viability, T/C (second compound 10 µM, first compound 0.01 µM) was 35.4%, the viability, T/C [11] was 39% and the viability, T/C [12] was 33.3%.

`C[C@@H](NC(=O)c1ncnc(N)c1Cl)c1ncc(C(=O)Nc2cc(C(F)(F)F)c(Cl)cn2)s1` + CC(Nc1ncnc2nc[nH]c12)c1cc2cccc(Cl)c2c(=O)n1-c1ccccc1 gave an IC50 (second compound 0.0316 µM) greater than 10000 nM, an IC50 (second compound 0.1 µM) greater than 10000 nM and an IC50 (second compound 0.316 µM) greater than 10000 nM. For the same compound, the IC50 (second compound 1 µM) was greater than 10000 nM, the IC50 (second compound 3.16 µM) was greater than 10000 nM and the IC50 (second compound 10 µM) was 3520 nM. For the same compound, the viability, T/C [1] was 158%, the viability, T/C [2] was 182% and the viability, T/C (second compound 0.0316 µM, first compound 0.316 µM) was 124%. It also gave a viability, T/C (second compound 0.0316 µM, first compound 1 µM) of 145%, a viability, T/C (second compound 0.0316 µM, first compound 3.16 µM) of 153% and a viability, T/C (second compound 0.0316 µM, first compound 10 µM) of 118%. The viability, T/C [3] was 128%, the viability, T/C [4] was 172% and the viability, T/C (second compound 0.1 µM, first compound 0.316 µM) was 153%. The viability, T/C (second compound 0.1 µM, first compound 1 µM) was 144%, the viability, T/C (second compound 0.1 µM, first compound 3.16 µM) was 147% and the viability, T/C (second compound 0.1 µM, first compound 10 µM) was 104%. For the same compound, the viability, T/C [5] was 112%, the viability, T/C [6] was 150% and the viability, T/C (second compound 0.316 µM, first compound 0.316 µM) was 135%. It also gave a viability, T/C (second compound 0.316 µM, first compound 1 µM) of 145%, a viability, T/C (second compound 0.316 µM, first compound 3.16 µM) of 150% and a viability, T/C (second compound 0.316 µM, first compound 10 µM) of 64.8%. The viability, T/C [7] was 146%, the viability, T/C [8] was 146% and the viability, T/C (second compound 1 µM, first compound 0.316 µM) was 147%. For the same compound, the viability, T/C (second compound 1 µM, first compound 1 µM) was 175%, the viability, T/C (second compound 1 µM, first compound 3.16 µM) was 144% and the viability, T/C (second compound 1 µM, first compound 10 µM) was 96.1%. It also gave a viability, T/C [9] of 119%, a viability, T/C [10] of 141% and a viability, T/C (second compound 3.16 µM, first compound 0.316 µM) of 111%. The viability, T/C (second compound 3.16 µM, first compound 1 µM) was 148%, the viability, T/C (second compound 3.16 µM, first compound 3.16 µM) was 91.4% and the viability, T/C (second compound 3.16 µM, first compound 10 µM) was 44.6%. For the same compound, the viability, T/C [11] was 72.8%, the viability, T/C [12] was 131% and the viability, T/C (second compound 10 µM, first compound 0.316 µM) was 88.7%. The viability, T/C (second compound 10 µM, first compound 1 µM) was 93.2%, the viability, T/C (second compound 10 µM, first compound 3.16 µM) was 51% and the viability, T/C (second compound 10 µM, first compound 10 µM) was 39.9%.
